The source of these data is patent publication US7541446B2, “Tet repressor-based transcriptional regulatory proteins” (Tet Systems Holding GmbH & Co. KG, priority 1999, dated 2009).

What all share (format): cell-based
Experiment [1] deals with luciferase reporter construct pUHC13-3. In words: Doxycycline-dependent regulation of luciferase in HeLa cell lines stably producing the transactivator, reporter pUHC13-3 transiently transfected. The source says: In order to generate cell lines that maintain the plasmid episomally and thus produce the transactivator over extended periods of time, the transcription unit containing the rtTA-34R coding sequence controlled by the hCMV promoter was inserted into […] (Invitrogen, Carlsbad, USA) from which the RSV promoter had been excised. […] HeLa cells were transfected with the plasmid pCEP4-rtTA-34R, and clones isolated via G418 selection. Clones stably producing the transactivator were selected and tested for their ability to activate transcription from the transiently transfected luciferase reporter construct pUHC13-3 in the presence and absence of Dox.
Upon addition of 5 μg/ml of Dox, luciferase activity is induced up to 600 fold. In comparison to the HeLa cell line HR5 harboring chromosomal copies of the rtTA gene (Gossen et al., 1995), the background level is reduced. […] This leads to a several hundred fold induction of gene expression in the case of the rtTA-34R clones whereas in HR5 cells rtTA achieves only a 20 to 30 fold induction under these conditions.

Experiment [2] has as its system luciferase gene controlled by Ptet. In words: rtTA-dependent luciferase expression in transiently cotransfected HeLa cells (pUHC13-3). The conditions noted are these: for induction of luciferase activity compared to rtTA: 5 μg/ml Tc or Dox; for reverse phenotype: transient expression, luciferase. As to the method: rtTA-34R and rtTA-44R were then recloned into pUHD15-1 (Gossen & Bujard, 1992), replacing the respective portions of tTA. HeLa cells were transiently cotransfected with plasmids pUHC13-3, encoding the luciferase gene controlled by Ptet (Gossen & Bujard, 1992), and the pUHD15-1 plasmids containing the genes of the respective transactivators. Luciferase activities were measured in absence (light column) and presence of 5 μg/ml of the effectors tetracycline (Tc, light grey) or doxycycline (Dox, dark grey). On the X axis, (−) corresponds to control HeLa cells into which no DNA was transferred. […] The increased regulation factor observed results from both a lower basal and a higher induced activity.
To obtain additional information about the role of the mutated residues, we separated the mutations at positions 19 and 56 from those at 139, 148 and 179. The resulting proteins are called rtTA-1956R and rtTA-148179R. The activation potential of rtTA-1956R and rtTA-148179R was assessed in transient expression experiments. Plasmids encoding the respective rtTA variants were cotransfected with the pUHC13-3 luciferase indicator plasmid into HeLa cells and the luciferase activity was determined.

In experiment [3] the test system is GFP controlled by a tTA/rtTA responsive promoter. In words: rtTA dependent GFP fluorescence in S. cerevisiae. The note with it: for basal activity (GFP fluorescence in the absence of inducer): excitation 490 nm, emission 512 nm. From the text: Thus, a plasmid, designated pCM190GFP+, was constructed which contains the following elements: • the coding sequence for GFP controlled by a tTA/rtTA responsive promoter; • a tTA/rtTA encoding sequence that is constitutively expressed; • the URA3 marker that allows selection in appropriate yeast strains; • the replication function of the 2μ episome of S. cerevisiae. Unique endonuclease cleavage sites allow for the removal of the TetR, the activation domain, or the entire tTA encoding sequences, typically replaced by pools of mutagenized alleles obtained as described previously (Leung et al., 1989).
The gene encoding GFP was cloned into the multiple cloning site of pCM190 (Gari et al., 1997) to serve as an indicator of rtTA activity, yielding plasmid pCM190GFP+. The TetR portion of tTA was amplified for mutagenesis with two oligonucleotide primers, 5′-[…] (SEQ ID NO:46), and 5′-[…] (SEQ ID NO:47), from the vector pCM190 as described (Leung et al., 1989). The PCR-fragments and pCM190-GFP+ were restricted with XbalI and BsiWI and purified. The PCR-fragments and the vector were then ligated and transformed into E. coli DH5α. Several thousand E. coli clones were co-cultured, and their plasmid pools were prepared and transformed into S. cerevisiae using the LiAc-method (Ito et al., 1983). […]
Accordingly, the resulting uracil-prototroph yeast clones were replica plated on minimal medium without uracil containing either Tc and/or Dox and scored after growth for two to three days at 30° C. using long wavelength UV-light to excite GFP fluorescence. […] The GFP fluorescence is shown on a logarithmic scale on the left axis. Fluorescence intensities are shown for each transactivator in the absence of inducer, in the presence of 10 μg/ml of Tc, and/or in the presence of 10 μg/ml of Dox. […]
S. cerevisiae strains containing rtTA-34R, rtTA-44R and a GFP^31 strain, as well as strains containing the original tTA and rtTA were grown overnight in minimal medium. […] The light emission of these cells was scored in a fluorimeter using an excitation wavelength of 490 nm and recording emission at 512 nm. […]

The test system of experiment [4] is Ptet-luciferase expression unit. The experiment can be described thus: Dox dependent luciferase activity in stably transfected HeLa cells (X1/6-34R-FFFF, HR5-CL11). The note with it: X1/6-34R-FFFF or HR5-CL11. The source says:
The coding sequence of rTetR-34R was fused with a DNA encoding four minimal activation domains (FFFF)(Baron et al., 1997) by insertion into a proper pUHD vector to generate plasmid […]. HeLa cell line X1/6 was transfected with plasmid pUHrT5 1-1 carrying the rtTA-34R-FFFF gene under the control of PhCMv. The resulting HeLa cell line X1/6-34R-FFFF contains, in addition, the Ptet-luciferase expression unit in a “silent but activatable” locus.
Cell lines derived from various clones that contain pUHrT51-1 stably inserted into the genome where it is constitutively expressed were isolated via hygromycin-B selection and analyzed for Dox dependent luciferase activity. […] This is most likely due to the residual affinity between rtTA and tetO.

Where [5] appears, read: cell line HeLa 0.34R-16, episomal pCEP4-rtTA-34R.
The mark [6] stands for this setting: cell line HeLa 0.34R-33, episomal pCEP4-rtTA-34R.
Setting [7] is: cell line HeLa 0.34R-36, episomal pCEP4-rtTA-34R.
Setting [8] is: cell line HeLa HR5 (Tet on), chromosomal copies of the rtTA gene.

Regarding “rtTA-34R: rtTA sequence variant E19G, A56P, H139H (silent), D148E, H179R; aa = SEQ ID NO:2”, the “induced level of luciferase in comparison to HR5” value in experiment [1] (5 μg/ml of Dox, rtTA-34R HeLa clones) was “significantly elevated”. Further, the “induction of luciferase activity” value in experiment [1] (5 μg/ml of Dox, rtTA-34R HeLa clones, rtTA in HR5 cells) is recorded as “up to 600 fold”. Moreover, the factor of induction in experiment [1] (cell line HeLa 0.34R-16) was 600; in experiment [1] (cell line HeLa 0.34R-33) it was 200; in experiment [1] (cell line HeLa 0.34R-36), 200. Besides, the “Luciferase activity (RLU/μg protein) with Dox” value in experiment [1] (setting [5]) came out at 540 ± 50 RLU/μg protein; in experiment [1] (setting [6]) it was 360 ± 140 RLU/μg protein; in experiment [1] (setting [7]) it was 430 ± 50 RLU/μg protein. The entries for the “Luciferase activity (RLU/μg protein) without Dox” value in experiment [1] (setting [5]), in experiment [1] (setting [6]) and in experiment [1] (setting [7]) were 323600 ± 69470 RLU/μg protein, 74620 ± 3230 RLU/μg protein and 87000 ± 7820 RLU/μg protein, respectively. Also, the “background level of luciferase in comparison to HR5” value in experiment [1] (without Dox, rtTA-34R HeLa clones) is given as “reduced”. For the same substance, in experiment [2], the “induction of luciferase activity compared to rtTA” value is listed as “even higher induction of luciferase activity as compared to rtTA”. Further, the reverse phenotype entry in experiment [2] was “improved reverse phenotype”. For the same substance, the “basal activity (GFP fluorescence in the absence of inducer)” value in experiment [3] is “clearly lower as compared to rtTA”.
For “rtTA-1956R: rtTA sequence variant E19G, A56P; aa = SEQ ID NO:7”, the reverse phenotype entry in experiment [2] is given as “sufficient for the reverse phenotype”.
As for “rtTA-44R: rtTA sequence variant T26A, D95G; aa = SEQ ID NO:13”, in experiment [2], the “induction of luciferase activity compared to rtTA” value was “not improved over rtTA” and the reverse phenotype entry is given as “shows a reverse phenotype”. Besides, the “basal activity (GFP fluorescence in the absence of inducer)” value in experiment [3] is “clearly lower as compared to rtTA”.
On to “rtTA: original reverse tetracycline controlled transactivator (Gossen et al., 1995), parent, SEQ ID NO: 22/23 [reference compound]”, for which, in experiment [4], the “induction of luciferase activity by Dox” value was “about 700 fold” and the “luciferase activity in the absence of Dox” value is “significant background luciferase activity”. This substance also registered a factor of induction in experiment [1] (cell line HeLa HR5 (Tet on)) of 27. Moreover, in experiment [1] (setting [8]), the “Luciferase activity (RLU/μg protein) with Dox” value is on record as 920 ± 170 RLU/μg protein and the “Luciferase activity (RLU/μg protein) without Dox” value is on record as 26400 ± 4030 RLU/μg protein. Besides, the “induction factor of expression” value in experiment [3] (GFP fluorescence, Tc or Dox 10 μg/ml) stood at 40 fold.
